Experiments:
[1] = test system: activated bone-marrow-derived dendritic cells; assay: in vitro chemotaxis of dendritic cells to CXCL12; assay type: cell-based; conditions: T22 500 ng/ml; 200 ng/ml of CXCL12
CXCR4-B16 cells [2] = assay: pulmonary metastasis after i.v. injection of CXCR4-B16 cells (lung luciferase assay); assay type: in vivo, mice; conditions: for effect on pulmonary metastasis: CXCR4-B16-injected mice; for effect on pulmonary metastasis / Average weight: 4 μg peptide i.p. daily; for Luciferase activity (RLU): lung, 4 μg peptide/mouse i.p. daily; for Luciferase activity (RLU) / Average weight: CXCR4-B16 cells i.v.; for Average weight: mass of the lungs; for Average Relative Luciferase Units: CXCR4-B16 i.v., 14-day assay
Experimental: (§1) Luciferase activity was measured using a Luciferase Reporter assay system (Promega, Madison, Wis.). Cultured cells were lysed with 100 μl of undiluted lysis buffer and then assayed in the presence of luciferin using a Thermo Labsystems MLX 96-well luminometer (Helsinki, Finland). Units are in arbitrary light units. For tissue assays, organs from each animal were homogenized in 1 ml of lysis buffer, of which 25 μl aliquots were then assayed in duplicate. Means of duplicates were used to represent the luciferase activity for a given tissue from a particular animal. Five to ten animals per experimental treatment group were used for typical experiments.
(§2) CXCR4- and pLNCX2-B16 cells in exponential growth phase were harvested by trypsinization and washed twice in PBS prior to injection. Cell viability was >95% as determined by trypan blue dye exclusion. For the footpad (i.e., subcutaneous) injection, B16 cells (4×10^5 cells in 20 μl PBS) were subcutaneously injected into the left footpads of C57BL/6 mice. Tumor growth was monitored three times per week by measurement of two maximum perpendicular tumor diameters. When tumors reached 5-7 mm in size, animals were euthanized prior to harvesting of lung and LN. Popliteal LN were removed by gently pulling skin (including the dermis and subcutaneous fat) above the popliteal fossa and carefully exposing the LN resting in the adipose tissue of the fossa with a pair of forceps. For intravenous injection, 4×10^5 CXCR4- or pLNCX2-B16 cells in 200 μl were injected into the tail veins of mice. T22 and ALA peptides in sterile PBS were administered via an intraperitoneal (i.p.) route using 4 μg peptide/mouse daily for the indicated duration of treatment. Experiments were performed 2-4 times each with similar trends.
To determine whether T22 would inhibit the CXCR4-mediated increase in metastasis, mice were injected intravenously with CXCR4-B16 and pLNCX2-B16 cells. Subgroups of CXCR4-B16 mice were treated daily with 4 μg of either T22 or ALA control peptide. CXCR4-B16 cells accumulated in greater numbers in the lung compared to pLNCX2-B16 cells (Table 4), confirming the results described in Example 2.
It has been shown that the CXCR4 inhibitory peptide, T22, blocked pulmonary metastasis of CXCR4-B16 cells when this CXCR4 inhibitor was used daily throughout the course of the 14-day metastastis assay (Murakami et al., Cancer Res. 62:7328-7334 (2002)). To determine if short-term treatment with T22 was also effective in blocking metastasis, the in vivo assay described in Murakami et al., Cancer Res. 62:7328-7334 (2002), was modified and the drug was only given for the first two days of the 14-day waiting period following i.v. injection of CXCR4-B16 and pLNCX2-B16 cells. In one group of animals, the CXCR4 antagonist peptide T22 was administered intraperitoneally (i.p.) shortly after tumor inoculation and again 24 hours later. In another group of CXCR4-B16-injected mice, T22 was given daily for 14 days.
To determine whether T22 treatment during the last 7 days of the metastasis assay could reduce tumor burden, T22 was given daily either during the entire 2-week treatment period or for just the second week (Table 9).
CXCR4-B16 and pLNCX2-B16 cells in exponential growth phase were harvested by trypsinization and washed twice in PBS before injection. Cell viability was >95% as determined by trypan blue dye exclusion. CXCR4-B16 or pLNCX2-B16 cells (4×10^5 in 200 μl PBS) were then injected into the tail veins of mice. T22 and ALA peptides in sterile PBS were administered via an i.p. route using 4 μg peptide/mouse daily for the indicated duration of treatment as described (Murakami et al., Cancer Res. 62:7328-7334 (2002)). Mice were euthanized after 14 days for gross inspection of lungs and luciferase quantification of metastasis by luciferase activity (Murakami et al., Cancer Res. 62:7328-7334 (2002)). […]

CXCR4-B16 cells [3] = assay: growth of CXCR4-B16 cells under low serum conditions in vitro; assay type: cell-based, murine; conditions: for effect of peptide alone on growth: T22 or ALA alone; for cell count CXCR4-B16 24 h / cell count CXCR4-B16 48 h: low serum (0.5% FCS); for block of growth stimulated by CXCL12: low serum, in the presence of CXCL12
Experimental: (§3) CXCR4- and pLNCX2-B16 cells (2×10^4 cells/well) were cultured in triplicate for 24 hr in 24-well plates containing B16 growth medium (DMEM, 10% FCS). After rinsing the cells in serum-free DMEM, the B16 cells were incubated for 40 hr at 37° C. in DMEM containing low serum (0.5% FCS). At this point, CXCL12 (500 ng/ml) was added to the cells by itself or with either T22 or control ALA peptide at 1 μg/ml for the indicated times. Cells were then harvested at 24 or 48 hr later and counted by a hemacytometer.

pLNCX2-B16 cells [4] = assay: growth of pLNCX2-B16 cells under low serum conditions in vitro; assay type: cell-based, murine; conditions: for cell count pLNCX2-B16 24 h / cell count pLNCX2-B16 48 h: low serum (0.5% FCS); for effect on growth of pLNCX2-B16 cells: under either low or high serum conditions
Experimental: as §3

pLNCX2-B16 cells [5] = assay: pulmonary metastasis after i.v. injection of pLNCX2-B16 cells (lung luciferase assay); assay type: in vivo; conditions: pLNCX2-B16-injected mice
Experimental: as §1
CXCR4- and pLNCX2-B16 cells in exponential growth phase were harvested by trypsinization and washed twice in PBS prior to injection. Cell viability was >95% as determined by trypan blue dye exclusion. […] Tumor growth was monitored three times per week by measurement of two maximum perpendicular tumor diameters. […]
CXCR4-B16 and pLNCX2-B16 cells in exponential growth phase were harvested by trypsinization and washed twice in PBS before injection. Cell viability was >95% as determined by trypan blue dye exclusion. […] Mice were euthanized after 14 days for gross inspection of lungs and luciferase quantification of metastasis by luciferase activity (Murakami et al., Cancer Res. 62:7328-7334 (2002)). […]

CXCR4-B16 cells [6] = assay: growth of CXCR4-B16 cells injected into the footpad; assay type: in vivo, mice; conditions: compared to either PBS or ALA
Experimental: as §2

[7] = peptide 1 μg/ml together with SDF-1 (CXCL12 500 ng/ml)
[8] = treatment alone, CXCL12 500 ng/ml, peptide 1 μg/ml

| Substance | block of in vitro chemotaxis to CXCL12 [1] | effect on pulmonary metastasis (CXCR4-B16 cells [2]) | Luciferase activity (RLU) (CXCR4-B16 cells [2]) | Average weight (CXCR4-B16 cells [2]) [g] | effect of peptide alone on growth (CXCR4-B16 cells [3]) | cell count CXCR4-B16 24 h (CXCR4-B16 cells [3]; [7]) | cell count CXCR4-B16 48 h (CXCR4-B16 cells [3]; [7]) | cell count CXCR4-B16 24 h (CXCR4-B16 cells [3]; [8]) | cell count CXCR4-B16 48 h (CXCR4-B16 cells [3]; [8]) | block of growth stimulated by CXCL12 (CXCR4-B16 cells [3]) | cell count pLNCX2-B16 24 h (pLNCX2-B16 cells [4]; [7]) | cell count pLNCX2-B16 48 h (pLNCX2-B16 cells [4]; [7]) | cell count pLNCX2-B16 24 h (pLNCX2-B16 cells [4]; [8]) | cell count pLNCX2-B16 48 h (pLNCX2-B16 cells [4]; [8]) | effect on growth of pLNCX2-B16 cells (pLNCX2-B16 cells [4]) | other results |
| --- | --- | --- | --- | --- | --- | --- | --- | --- | --- | --- | --- | --- | --- | --- | --- | --- |
| H-KWAFRVAYRGIAYRRAR-OH [ALA, reference compound] | no inhibitory effect | no effect | 43928 ± 29729 | 0.88 | did not significantly alter growth | 16.0 ± 1.0 | 33.3 ± 6.7 | 12.0 ± 0.1 | 22.3 ± 1.2 | but not by the control peptide | 10.7 ± 2.9 | 22.7 ± 3.2 | 10.0 ± 1.0 | 20.3 ± 3.5 | did not affect the growth |  |
| NH2-RRWCYRKCYKGYCYRKCR-COOH (H-RRWCYRKCYKGYCYRKCR-OH; cysteine pairing not given here) [T22] | block specifically | reduced metastasis to levels seen in pLNCX2-B16 injected mice | 1114 ± 956 | 0.55 | did not significantly alter growth | 12.7 ± 2.1 | 20.7 ± 3.0 | 11.0 ± 1.0 | 22.0 ± 1.0 | could be blocked | 12.3 ± 0.6 | 21.7 ± 3.2 | 10.7 ± 1.2 | 21.0 ± 1.0 | did not affect the growth | Average Relative Luciferase Units (CXCR4-B16 cells [2]; T22 daily 2nd week only): 81981.2 Relative Luciferase Units; Average Relative Luciferase Units (CXCR4-B16 cells [2]; T22 daily for 2 weeks): 15294.5 Relative Luciferase Units; protection against CXCR4-mediated pulmonary metastasis (CXCR4-B16 cells [2]; T22 i.p. for the first two days of the 14-day assay): as effective as giving T22 daily for the entire 2-week course; metastatic burden (CXCR4-B16 cells [2]; T22 treatment during the second week only): same metastatic burden as PBS (mock) treatment; effect on metastasis (pLNCX2-B16 cells [5]): did not block metastasis; effect on growth of cells injected into the footpad (CXCR4-B16 cells [6]): no significant effect on the growth |

From patent US20040132642A1, “Methods of inhibiting metastasis or growth of a tumor cell” (Government of the U.S.A., represented by the Secretary, …, priority 2002, published 2004)
